Measurements taken from ChEMBL document CHEMBL1909046, “DrugMatrix in vitro pharmacology data”.

How the values were obtained:
[1] = target: Sodium-dependent noradrenaline transporter (Homo sapiens, UniProt P23975); assay: DRUGMATRIX: Norepinephrine Transporter radioligand binding (ligand: [125I] RTI-55); type: cell membranes, MDCK, Membrane; conditions: Not Active = under 50% inhibition at 10 µM
[2] = target: Cytochrome P450 2C19 (Homo sapiens, UniProt P33261); conditions: bti-tn-5b1-4; further: in other assays of this panel Not Active means under 50% inhibition at 10 µM
Sequence of Cytochrome P450 2C19 (P33261 whole entry): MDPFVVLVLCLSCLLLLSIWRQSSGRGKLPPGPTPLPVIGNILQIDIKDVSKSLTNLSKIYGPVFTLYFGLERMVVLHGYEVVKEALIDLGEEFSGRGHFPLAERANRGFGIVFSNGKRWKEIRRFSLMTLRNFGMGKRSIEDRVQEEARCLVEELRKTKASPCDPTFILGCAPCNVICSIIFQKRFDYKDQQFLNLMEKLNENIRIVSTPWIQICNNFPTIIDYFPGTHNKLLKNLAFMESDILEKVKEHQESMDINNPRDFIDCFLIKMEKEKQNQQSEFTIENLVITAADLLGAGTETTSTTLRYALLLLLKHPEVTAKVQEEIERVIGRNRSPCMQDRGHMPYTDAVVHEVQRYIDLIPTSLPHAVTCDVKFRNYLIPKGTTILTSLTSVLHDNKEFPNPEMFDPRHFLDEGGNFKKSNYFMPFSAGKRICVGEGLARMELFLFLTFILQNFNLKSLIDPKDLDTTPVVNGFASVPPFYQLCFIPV

[3] = target: T1, Amine oxidase [flavin-containing] A (Homo sapiens, UniProt P21397); assay: DRUGMATRIX: Monoamine Oxidase MAO-A enzyme inhibition (substrate: Kynuramine); parameters: species or system BTI-TN-5B1-4; conditions: bti-tn-5b1-4; Not Active = under 50% inhibition at 10 µM
T1 sequence (P21397 whole entry): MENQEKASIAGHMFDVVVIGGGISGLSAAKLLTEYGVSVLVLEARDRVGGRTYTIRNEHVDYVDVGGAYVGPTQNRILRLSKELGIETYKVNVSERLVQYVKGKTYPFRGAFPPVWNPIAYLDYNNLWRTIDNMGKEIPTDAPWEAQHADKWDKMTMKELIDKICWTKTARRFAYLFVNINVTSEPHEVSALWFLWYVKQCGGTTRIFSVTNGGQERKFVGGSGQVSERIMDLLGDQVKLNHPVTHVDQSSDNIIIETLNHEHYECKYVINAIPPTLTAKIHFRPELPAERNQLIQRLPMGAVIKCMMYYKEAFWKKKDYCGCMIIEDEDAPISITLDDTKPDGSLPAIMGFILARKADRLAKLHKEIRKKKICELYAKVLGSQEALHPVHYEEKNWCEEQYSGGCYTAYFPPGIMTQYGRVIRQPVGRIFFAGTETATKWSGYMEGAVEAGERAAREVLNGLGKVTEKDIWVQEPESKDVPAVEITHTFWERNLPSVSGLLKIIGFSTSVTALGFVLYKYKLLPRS

[4] = target: T2, 5-hydroxytryptamine receptor 2C (Homo sapiens, UniProt P28335); assay: DRUGMATRIX: Serotonin (5-Hydroxytryptamine) 5-HT2C radioligand binding (ligand: [3H] Mesulergine); type: cell membranes, CHO-K1, Membrane; conditions: Not Active = under 50% inhibition at 10 µM
T2 sequence (P28335 whole entry): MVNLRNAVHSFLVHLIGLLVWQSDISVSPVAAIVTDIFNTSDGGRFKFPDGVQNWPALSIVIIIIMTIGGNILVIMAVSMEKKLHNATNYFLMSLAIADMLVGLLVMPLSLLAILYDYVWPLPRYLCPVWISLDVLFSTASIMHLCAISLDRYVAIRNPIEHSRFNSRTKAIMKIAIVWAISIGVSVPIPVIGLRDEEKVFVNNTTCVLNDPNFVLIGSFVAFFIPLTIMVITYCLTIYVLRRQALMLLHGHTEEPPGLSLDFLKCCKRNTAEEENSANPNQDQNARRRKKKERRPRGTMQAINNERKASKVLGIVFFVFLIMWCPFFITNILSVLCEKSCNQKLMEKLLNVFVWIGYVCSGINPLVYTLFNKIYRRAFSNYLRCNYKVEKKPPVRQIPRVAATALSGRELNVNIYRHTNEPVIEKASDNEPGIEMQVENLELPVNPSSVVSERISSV

[5] = target: Cytochrome P450 2C9 (Homo sapiens, UniProt P11712); conditions: bti-tn-5b1-4; further: in other assays of this panel Not Active means under 50% inhibition at 10 µM
Sequence of Cytochrome P450 2C9 (P11712 whole entry): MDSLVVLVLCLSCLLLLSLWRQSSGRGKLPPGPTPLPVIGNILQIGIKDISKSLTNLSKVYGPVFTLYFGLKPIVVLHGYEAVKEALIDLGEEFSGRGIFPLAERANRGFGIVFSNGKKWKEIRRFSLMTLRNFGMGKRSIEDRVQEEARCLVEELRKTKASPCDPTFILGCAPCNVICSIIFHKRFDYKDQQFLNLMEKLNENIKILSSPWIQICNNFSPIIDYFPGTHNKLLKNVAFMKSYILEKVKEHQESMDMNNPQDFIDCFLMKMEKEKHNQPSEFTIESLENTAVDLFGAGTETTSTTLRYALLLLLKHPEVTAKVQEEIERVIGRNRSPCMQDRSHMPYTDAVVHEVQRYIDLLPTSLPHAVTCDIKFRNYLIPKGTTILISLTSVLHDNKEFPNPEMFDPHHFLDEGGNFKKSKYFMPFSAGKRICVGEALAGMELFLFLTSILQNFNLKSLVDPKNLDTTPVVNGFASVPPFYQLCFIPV

[6] = target: T3, Cysteinyl leukotriene receptor 1 (Homo sapiens, UniProt Q9Y271); type: cell membranes, Membrane; conditions: cho-k1; further: in other assays of this panel Not Active means under 50% inhibition at 10 µM
T3 sequence (Q9Y271 whole entry): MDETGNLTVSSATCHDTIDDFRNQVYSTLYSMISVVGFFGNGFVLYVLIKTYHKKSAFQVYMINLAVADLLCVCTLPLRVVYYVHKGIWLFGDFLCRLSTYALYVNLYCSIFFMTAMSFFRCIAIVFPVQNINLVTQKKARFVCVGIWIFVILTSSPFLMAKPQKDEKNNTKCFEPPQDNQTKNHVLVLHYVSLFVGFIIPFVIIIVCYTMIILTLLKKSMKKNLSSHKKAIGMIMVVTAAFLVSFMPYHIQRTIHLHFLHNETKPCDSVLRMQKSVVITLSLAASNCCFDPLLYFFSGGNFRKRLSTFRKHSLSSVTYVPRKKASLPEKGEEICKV

Sequence of Sodium-dependent noradrenaline transporter (P23975 whole entry): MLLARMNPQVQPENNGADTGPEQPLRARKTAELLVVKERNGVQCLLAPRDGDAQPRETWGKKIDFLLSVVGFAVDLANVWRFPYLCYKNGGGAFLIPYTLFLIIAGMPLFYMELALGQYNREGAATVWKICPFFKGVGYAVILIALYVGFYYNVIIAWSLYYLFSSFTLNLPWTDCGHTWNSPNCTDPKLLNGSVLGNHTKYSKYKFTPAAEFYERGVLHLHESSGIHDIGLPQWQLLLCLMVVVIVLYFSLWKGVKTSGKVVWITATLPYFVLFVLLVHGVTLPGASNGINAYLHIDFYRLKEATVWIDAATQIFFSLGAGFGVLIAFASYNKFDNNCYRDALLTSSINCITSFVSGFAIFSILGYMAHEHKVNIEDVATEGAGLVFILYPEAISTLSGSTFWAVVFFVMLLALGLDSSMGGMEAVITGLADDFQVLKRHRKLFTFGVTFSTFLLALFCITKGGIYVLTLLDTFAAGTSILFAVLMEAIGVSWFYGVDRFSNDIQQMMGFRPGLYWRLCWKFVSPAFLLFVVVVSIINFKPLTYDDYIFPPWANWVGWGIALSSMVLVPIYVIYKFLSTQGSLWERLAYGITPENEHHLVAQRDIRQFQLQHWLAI

Row | Structure (SMILES) | IC50 ([1]; mdck) | IC50 [2] | Ki [2] | IC50 [3] | IC50 ([4]; cho-k1) | IC50 [5] | Ki [5] | IC50 [6] | IC50 ([4]; read-out: IC50) [µM] | Ki ([4]; read-out: Ki) [µM] | IC50 ([1]; read-out: IC50) [µM] | Ki ([1]; read-out: Ki) [µM]
1 | CCCCCC[C@H]1C(=O)O[C@H](C)[C@H](NC(=O)c2cccc(NC=O)c2O)C(=O)O[C@@H](C)[C@@H]1OC(=O)CC(C)C [ANTIMYCIN A] | Not Active | Not Active | Not Active | Not Active | Not Active | Not Active | Not Active | Not Active | – | – | – | –
2 | CO[C@H]1[C@@H](O)[C@H](N)[C@@H](O[C@H]2O[C@H]([C@H](C)N)CC[C@H]2N)[C@H](O)[C@@H]1N(C)C(=O)CN [ASTROMICIN] | Not Active | Not Active | Not Active | Not Active | Not Active | Not Active | Not Active | Not Active | – | – | – | –
3 | [N-]=[N+]=CC(=O)OC[C@H](N)C(=O)O [AZASERINE] | Not Active | Not Active | Not Active | Not Active | Not Active | Not Active | Not Active | Not Active | – | – | – | –
4 | CC[C@H]1OC(=O)[C@H](C)[C@@H](O[C@H]2C[C@@](C)(OC)[C@@H](O)[C@H](C)O2)[C@H](C)[C@@H](O[C@@H]2O[C@H](C)C[C@H](N(C)C)[C@H]2O)[C@](C)(O)C[C@@H](C)CN(C)[C@H](C)[C@@H](O)[C@]1(C)O [AZITHROMYCIN] | Not Active | Not Active | Not Active | Not Active | Not Active | Not Active | Not Active | Not Active | – | – | – | –
5 | CC(C)(C)c1ccc(S(=O)(=O)/C=C/C#N)cc1 [BAY-11-7085] | Not Active | Not Active | Not Active | Not Active | Not Active | Not Active | Not Active | Not Active | – | – | – | –
6 | O=c1cc(-c2ccccc2)oc2ccc3ccccc3c12 [BETA-NAPHTHOFLAVONE] | Not Active | Not Active | Not Active | Not Active | Not Active | Not Active | Not Active | Not Active | – | – | – | –
7 | CC(C)C[C@H]1C(=O)N2CCC[C@H]2[C@]2(O)O[C@](NC(=O)[C@@H]3C=C4c5cccc6[nH]c(Br)c(c56)C[C@H]4N(C)C3)(C(C)C)C(=O)N12 [BROMOCRIPTINE] | Not Active | Not Active | Not Active | Not Active | – | Not Active | Not Active | Not Active | 0.532 | 0.278 | – | –
8 | CS(=O)(=O)OCCCCOS(C)(=O)=O [BUSULFAN] | Not Active | Not Active | Not Active | Not Active | Not Active | Not Active | Not Active | Not Active | – | – | – | –
9 | O=C(/C=C/c1ccc(O)c(O)c1)OCCc1ccccc1 [CAFFEIC ACID PHENETHYL ESTER] | – | Not Active | Not Active | Not Active | Not Active | Not Active | Not Active | Not Active | – | – | 3.79 | 3.76
10 | COc1cc(CNC(=O)CCCC/C=C/C(C)C)ccc1O [CAPSAICIN] | Not Active | Not Active | Not Active | Not Active | Not Active | Not Active | Not Active | Not Active | – | – | – | –
11 | NC(=O)N1c2ccccc2C=Cc2ccccc21 [CARBAMAZEPINE] | Not Active | Not Active | Not Active | Not Active | Not Active | Not Active | Not Active | Not Active | – | – | – | –
12 | CCOC(=O)n1ccn(C)c1=S [CARBIMAZOLE] | Not Active | Not Active | Not Active | Not Active | Not Active | Not Active | Not Active | Not Active | – | – | – | –
13 | Oc1ccccc1O [CATECHOL] | Not Active | Not Active | Not Active | Not Active | Not Active | Not Active | Not Active | Not Active | – | – | – | –
14 | CO[C@@]1(NC(=O)CSCC#N)C(=O)N2C(C(=O)O)=C(CSc3nnnn3C)CS[C@@H]21 [CEFMETAZOLE] | Not Active | Not Active | Not Active | Not Active | Not Active | Not Active | Not Active | Not Active | – | – | – | –
15 | CN(C(=O)CCCOc1ccc2[nH]c(=O)ccc2c1)C1CCCCC1 [CILOSTAMIDE] | Not Active | Not Active | Not Active | Not Active | Not Active | Not Active | Not Active | Not Active | – | – | – | –
16 | CC(C)(Oc1ccc(C2CC2(Cl)Cl)cc1)C(=O)O (centres undefined) [CIPROFIBRATE] | Not Active | Not Active | Not Active | Not Active | Not Active | Not Active | Not Active | Not Active | – | – | – | –
17 | Nc1nc(Cl)nc2c1ncn2[C@H]1C[C@H](O)[C@@H](CO)O1 [CLADRIBINE] | Not Active | Not Active | Not Active | Not Active | Not Active | Not Active | Not Active | Not Active | – | – | – | –
18 | CC[C@H]1OC(=O)[C@H](C)[C@@H](O[C@H]2C[C@@](C)(OC)[C@@H](O)[C@H](C)O2)[C@H](C)[C@@H](O[C@@H]2O[C@H](C)C[C@H](N(C)C)[C@H]2O)[C@](C)(OC)C[C@@H](C)C(=O)[C@H](C)[C@@H](O)[C@]1(C)O [CLARITHROMYCIN] | Not Active | Not Active | Not Active | Not Active | Not Active | Not Active | Not Active | Not Active | – | – | – | –
19 | O=C(O)c1cc(=O)c2c(OCC(O)COc3cccc4oc(C(=O)O)cc(=O)c34)cccc2o1 [CROMOLYN] | Not Active | Not Active | Not Active | Not Active | Not Active | Not Active | Not Active | Not Active | – | – | – | –
20 | O=P1(N(CCCl)CCCl)NCCCO1 (centres undefined) [CYCLOPHOSPHAMIDE ANHYDROUS] | Not Active | Not Active | Not Active | Not Active | Not Active | Not Active | Not Active | Not Active | – | – | – | –
21 | CC(=O)O[C@]1(C(C)=O)CC[C@H]2[C@@H]3C=C(Cl)C4=CC(=O)[C@@H]5C[C@@H]5[C@]4(C)[C@H]3CC[C@@]21C [CYPROTERONE ACETATE] | Not Active | Not Active | Not Active | Not Active | Not Active | Not Active | Not Active | Not Active | – | – | – | –
22 | Nc1nc(N)nc(NC2CC2)n1 [CYROMAZINE] | Not Active | Not Active | Not Active | Not Active | Not Active | Not Active | Not Active | Not Active | – | – | – | –
23 | CCN[C@@H](C)Cc1cccc(C(F)(F)F)c1 [DEXFENFLURAMINE] | Not Active | Not Active | Not Active | Not Active | Not Active | Not Active | Not Active | Not Active | – | – | – | –
24 | C[C@H](C(=O)O)c1cccc(C(=O)c2ccccc2)c1 [DEXKETOPROFEN] | Not Active | Not Active | Not Active | Not Active | Not Active | Not Active | Not Active | Not Active | – | – | – | –
